Test results as given in BindingDB's records for doi:10.1016/j.bmcl.2007.04.051 (Eli Lilly, 2007).
pKi: −log10 of the molar value.

Experiments:
[1] = molecular target: T1, Estrogen receptor (Homo sapiens, UniProt P03372); assay: Estrogen Receptor Binding Assay.; conditions: pH 7.5; 22 °C
T1 sequence (P03372 whole entry): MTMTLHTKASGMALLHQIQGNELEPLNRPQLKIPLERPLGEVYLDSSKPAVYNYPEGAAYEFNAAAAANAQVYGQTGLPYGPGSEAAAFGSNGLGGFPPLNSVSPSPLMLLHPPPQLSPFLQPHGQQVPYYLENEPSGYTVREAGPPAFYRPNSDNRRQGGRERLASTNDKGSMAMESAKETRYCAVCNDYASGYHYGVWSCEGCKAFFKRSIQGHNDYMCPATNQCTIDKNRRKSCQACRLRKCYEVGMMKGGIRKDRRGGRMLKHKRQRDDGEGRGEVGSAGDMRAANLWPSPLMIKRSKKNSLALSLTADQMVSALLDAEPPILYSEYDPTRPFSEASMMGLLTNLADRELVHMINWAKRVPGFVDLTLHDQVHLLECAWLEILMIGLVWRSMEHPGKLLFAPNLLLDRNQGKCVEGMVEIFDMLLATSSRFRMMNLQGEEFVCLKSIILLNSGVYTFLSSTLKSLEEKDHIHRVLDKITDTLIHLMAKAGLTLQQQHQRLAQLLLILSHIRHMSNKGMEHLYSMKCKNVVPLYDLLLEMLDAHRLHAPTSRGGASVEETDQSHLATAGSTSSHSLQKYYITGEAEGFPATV
Experimental: (§1) The binding affinities were determined by a competitive radiometric binding assay using [3H]estradiol as tracer. The Kd for 3H-estradiol was determined by saturation binding to ER receptors. The IC50 values for compounds were converted to Ki using Cheng-Prusoff equation.

[2] = molecular target: Estrogen receptor beta (Homo sapiens, UniProt Q92731); assay: Estrogen Receptor Binding Assay.; conditions: pH 7.5; 22 °C
Experimental: as §1

Estrogen receptor beta, sequence (Q92731 whole entry): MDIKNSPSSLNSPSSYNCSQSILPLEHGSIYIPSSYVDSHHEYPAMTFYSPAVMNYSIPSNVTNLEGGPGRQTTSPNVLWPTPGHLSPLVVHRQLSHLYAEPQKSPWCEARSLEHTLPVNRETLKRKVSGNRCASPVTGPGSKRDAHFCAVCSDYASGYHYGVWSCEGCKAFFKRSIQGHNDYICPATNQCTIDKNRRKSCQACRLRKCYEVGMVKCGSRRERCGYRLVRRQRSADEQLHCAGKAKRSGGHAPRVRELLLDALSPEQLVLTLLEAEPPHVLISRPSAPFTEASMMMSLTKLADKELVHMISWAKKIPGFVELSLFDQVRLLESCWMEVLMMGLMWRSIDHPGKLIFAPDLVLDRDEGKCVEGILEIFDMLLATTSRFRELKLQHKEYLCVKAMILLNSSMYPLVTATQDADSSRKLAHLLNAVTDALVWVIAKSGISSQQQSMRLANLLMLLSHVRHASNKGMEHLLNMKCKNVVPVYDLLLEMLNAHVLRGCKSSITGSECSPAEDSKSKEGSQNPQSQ

Row | SMILES | pKi [1] | pKi [2]
1 | Oc1ccc([C@@H]2Oc3ccccc3[C@@H]3CCC[C@@H]32)cc1 (racemic) [4-[(2R,6S,7R)-8-oxatricyclo[7.4.0.0^{2,6}]trideca-1(9),10,12-trien-7-yl]phenol] | 7.40 | 7.66
2 | Oc1cccc([C@@H]2Oc3ccc(O)cc3[C@@H]3CCC[C@@H]32)c1 (racemic) [(2R,6S,7R)-7-(3-hydroxyphenyl)-8-oxatricyclo[7.4.0.0^{2,6}]trideca-1(9),10,12-trien-12-ol] | 7.19 | 
3 | Oc1ccc([C@@H]2Oc3cc(O)ccc3[C@@H]3CCC[C@@H]32)cc1 [racemic mixture] | 7.39 | 7.72
4 | Oc1ccc([C@@H]2Oc3ccc(O)cc3[C@@H]3CCCCC[C@@H]32)cc1 [racemic mixture] | 8.21 | 9.06
5 | Oc1ccc([C@@H]2Oc3ccc(O)cc3[C@@H]3CCCC[C@@H]32)cc1 [racemic mixture] | 8.54 | 9.20
6 | Oc1ccc([C@@H]2Oc3cccc(O)c3[C@@H]3CCC[C@@H]32)cc1 [racemic mixture] | 9.46 | 9.18
7 | Oc1ccc2c(c1)[C@@H]1CCC[C@@H]1[C@H](c1ccccc1)O2 [racemic mixture] | 6.57 | 
8 | Oc1ccc([C@@H]2CCc3cc(O)ccc3O2)cc1 [racemic mixture] | 6.90 | 
